Laboratory results: US8153784B2, “Imaging of enzyme activity” (The General Hospital Corporation, priority 2004, dated 2012)

How the values were obtained:
[1] = target: T1, horseradish peroxidase (HRP) (Armoracia rusticana, UniProt P00433); test: Pseudo-first-order rate constants of HRP-mediated conversion (relaxation times over time, 0.47 T); format: biochemical, horseradish; design: purchased Sigma-Aldrich type XII (catalogue number not given)
T1 sequence (P00433 31-338): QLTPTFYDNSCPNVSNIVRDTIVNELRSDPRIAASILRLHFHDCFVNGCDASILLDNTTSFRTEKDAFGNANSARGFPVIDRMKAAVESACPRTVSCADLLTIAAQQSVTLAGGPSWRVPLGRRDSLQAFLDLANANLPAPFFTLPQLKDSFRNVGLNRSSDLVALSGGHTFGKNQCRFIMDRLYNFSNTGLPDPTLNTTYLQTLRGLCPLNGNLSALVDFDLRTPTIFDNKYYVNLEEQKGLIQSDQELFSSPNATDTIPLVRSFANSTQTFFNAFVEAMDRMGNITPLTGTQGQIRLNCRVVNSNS
Experimental: Kinetics of the samples were observed by measuring T1 and T2 at 0.47 T and 40° C. of the samples over at least a 24 hour period. At different time points, 1 M of sodium azide (final concentration=0.17 M) was added to stop the enzyme mediated reaction. The resultant progress curve was fitted with an empirical mathematical model and analyzed according to the Guggenheim method to obtain the pseudo-first-order rate constants (Guggenheim E A. Philos. Mag. 1926; 2:538).
An important property of a suitable substrate for an enzyme is the kinetics of enzymatic reaction. To determine the utility of the paramagnetic complexes as suitable substrates for human myeloperoxidase (MPO), we measured the pseudo-first-order rate constant of these substrates in MPO, and compared to the same substrates' reactions in Horse Radish Peroxidase (HRP) by monitoring the changes in relaxation time over time. […] The results shown were obtained using T1 measurements. T2 measurements yielded nearly identical results. The results are presented as mean±SD. N/A=not applicable.

[2] = target: T2, Myeloperoxidase (MPO) (Homo sapiens, UniProt P05164); test: MPO-mediated oligomerization of 2Gd^3+: UV, HPLC, MALDI-MS, relaxivity; format: biochemical; conditions: for degree of polymerization (N) of oligomerized products: MPO/H2O2, MALDI-MS
T2 construct: purchased Biodesign Int
T2 sequence (P05164 49-745): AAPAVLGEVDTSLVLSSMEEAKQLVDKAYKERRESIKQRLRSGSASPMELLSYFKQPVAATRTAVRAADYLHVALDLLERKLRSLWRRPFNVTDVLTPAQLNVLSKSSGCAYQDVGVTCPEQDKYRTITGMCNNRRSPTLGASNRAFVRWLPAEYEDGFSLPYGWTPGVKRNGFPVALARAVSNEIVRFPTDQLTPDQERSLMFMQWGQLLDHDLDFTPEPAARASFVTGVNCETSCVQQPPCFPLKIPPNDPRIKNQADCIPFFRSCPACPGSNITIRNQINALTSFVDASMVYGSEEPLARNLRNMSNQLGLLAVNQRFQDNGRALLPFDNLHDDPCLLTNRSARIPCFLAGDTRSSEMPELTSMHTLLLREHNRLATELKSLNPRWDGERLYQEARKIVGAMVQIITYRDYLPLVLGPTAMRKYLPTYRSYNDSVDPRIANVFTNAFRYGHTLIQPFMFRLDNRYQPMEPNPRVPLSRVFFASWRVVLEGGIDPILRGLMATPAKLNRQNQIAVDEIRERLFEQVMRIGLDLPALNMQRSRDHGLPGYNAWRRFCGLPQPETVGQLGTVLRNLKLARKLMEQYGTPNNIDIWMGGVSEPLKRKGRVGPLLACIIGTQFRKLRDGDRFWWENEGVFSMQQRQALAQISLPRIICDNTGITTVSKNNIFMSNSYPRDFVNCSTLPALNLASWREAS
Experimental: Myeloperoxidase was purchased from Biodesign Int. and was used as received, activity was measured as described by Klebanoff, S. J.; Waltersdorph, A. M.; Rosen, H.; Methods in Enzymology. Vol. 105, p 399-403.
We incubated 0.6 mL of a solution 10^4M of Gd^3+2 at pH=7.2/25° with 4 units of MPO and an excess of H2O2 for 90 minutes. […] The intensity of these new bands increased for a period of about 90 min, and that 90% of the change could be observed within first 30 min. The reaction was quenched by freezing the mixture in liquid N2. […] However, higher N value species were undetectable.
Four solutions with concentrations ranging from 10^−4 to 10^−3 where separately incubated as above and the T1 value were measured at 0.47T using standard inverse recovery sequence. The fitting of these values, following published procedures, yielded a r1=5.9 mM^−1s^−1. […] For longer incubation times, no linear correlation of T1 from Gd concentration could be obtained due to the precipitation of CA at millimolar concentrations. Lower relaxivity increase (32%) was observed when the activity of the enzyme was lowered to 1 unit.
Further characterization of r1 effects modulated by MPO was accomplished by using a 4×2 well plate array of samples prepared as shown in FIG. 14: Row 1 contained 0.3 mL Gd-DTPA-diSer solutions at pH 7.2; Row 2 included the samples the same concentrations and 4 units of MPO and 2 μL of a 3% of aqueous H2O2. Fitting the T1 values of the wells in row 1 afforded r1 of 4.7 mM^−1s^−1. […] In this case, we observed precipitation of insoluble products during the MRI scan. The fitting of the values measured in other 3 wells, the relaxivity was 5.5 mM^−1s^−1.
Indium-111 labeled bis-5-HT-DTPA was prepared by using transchelation from ^111In-oxiquinoline complex (oxine, Cardinal Health, Cleveland Ohio). To prepare ^111In-bis-5-HT-DTPA, 50 μg of bis-5-HT-DTPA (1 mg/ml) were mixed with 1 mCi ^111In-oxiquinoline solution in 0.7-1.0 ml saline and incubated for 1 hour under argon. Transchelation and purity was controlled by HPLC (Discovery C-18 column, 25×3 mm, Supelco) using 0-55% gradient of acetonitrile in water. Human myeloperoxidase was obtained from BioDesign, Inc., and its activity determined by using the method described by Klebanoff. To determine if the Gd compounds were substrates for human MPO, MPO-mediated oligomerization was monitored by size exclusion HPLC and by measuring ΔT1 on a Bruker Minispec 120 NMR spectrometer using a standard inversion recovery sequence. The degree of oligomerization was determined by mass spectroscopy (MALDI-MS).

[3] = test system: plasma proteins; test: Substrate binding to plasma components (Biospin P-6 elution with 111In tracer); format: in vitro ADME; conditions: human plasma; eluting experiments
Experimental: The follow experiments were performed to determine the effect of MPO-activated substrate oligomerization with plasma proteins to form larger aggregate. Human plasma was extracted from healthy donors by the use of Polymorphprep (Accurate Chemicals) and centrifugation according to the manufacturer's instructions. Aliquots of 3 mM solution of bis-5-HT-DTPA(Gd) was mixed with aliquots of ^111In-bis-5-HT-DTPA as a tracer, with or without human plasma and with and without MPO/H2O2. […] Radioactivity retained in the columns and the eluted material were counted separately in 1480 Wizard gamma counter (Perkin-Elmer) and the fraction of radioactivity bound to proteins was calculated (n=3 independent experiments).

Compound	fraction of the final relaxation rate obtained within the first 5 minutes [1]	Pseudo first-order rate constant ([1]; from T1 measurements, mean±SD)	increase of r1 compared with the initial substrate ([2]; 0.47T, 4 units of MPO)	r1 ([2]; 0.47T, 4 units of MPO, H2O2)	relaxivity increase ([2]; 0.47T, enzyme activity lowered to 1 unit)	fraction of the UV absorbance change observed within first 30 min ([2]; 10^4M, pH=7.2/25°, 4 units of MPO, excess H2O2)	conversion ([2]; HPLC after addition of MPO)	degree of polymerization (N) of oligomerized products ([2]; listed as Gd^3+2)	degree of polymerization (N) of oligomerized products ([2]; listed as bis-5-HT-DTPA(Gd))	relaxivity ([2]; well plate at 1.5T, 4 units of MPO and H2O2, fitting of 3 wells)	minimum increase of relaxivity ([2]; well plate at 1.5T, range 10^−4 to 5 10^−4)	binding of MPO-activated oligomers to plasma proteins compared to the substrate itself [3]
CC(C(=O)NCC(=O)NCCc1c[nH]c2ccc(O)cc12)N1CCN(CC(=O)[O-])CCN(CC(=O)[O-])CCN(CC(=O)[O-])CC1.[Gd+3] (stereo not drawn) [5-HT-DOTA(Gd), Glycylmethyl DOTA(Gd) 5-Hydroxytryptamide]	more than 80%	0.01 s⁻¹	–	–	–	–	–	–	–	–	–	–
O=C([O-])CN(CCN(CC(=O)[O-])CC(=O)NCCc1c[nH]c2ccc(O)cc12)CCN(CC(=O)[O-])CC(=O)NCCc1c[nH]c2ccc(O)cc12.[Gd+3] [2Gd^3+]	–	–	37%	5.9 mM⁻¹ s⁻¹	32%	90%	99.5%	1-4	up to 5	5.5 mM⁻¹ s⁻¹	≥ 17%	over 3 fold
